Test results published in US7964591B2, “Pyridazine derivatives and their use as therapeutic agents” (Novartis Pharma AG, priority 2003, dated 2011).

Target: T1, stearoyl-CoA desaturase (SCD) (Mus musculus, UniProt P13516)
T1 sequence (P13516 1-355): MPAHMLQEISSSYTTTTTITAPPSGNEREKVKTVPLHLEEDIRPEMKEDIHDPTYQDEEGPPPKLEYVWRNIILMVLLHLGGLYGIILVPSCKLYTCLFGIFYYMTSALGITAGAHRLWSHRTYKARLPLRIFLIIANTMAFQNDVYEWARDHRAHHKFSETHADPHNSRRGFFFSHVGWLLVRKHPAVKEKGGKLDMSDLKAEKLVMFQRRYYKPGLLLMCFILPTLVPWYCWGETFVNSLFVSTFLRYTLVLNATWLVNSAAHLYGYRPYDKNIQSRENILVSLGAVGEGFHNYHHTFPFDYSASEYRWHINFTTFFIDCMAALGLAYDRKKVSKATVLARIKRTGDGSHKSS
Assay: Stearoyl-CoA desaturase inhibition using mouse liver microsomes (HTS microsomal assay, IC50 follow-up)
Settings: % SCD enzyme activity remaining at 10 μM test compound
Protocol: Livers are immediately rinsed with cold 0.9% NaCl solution, weighed and minced with scissors. All procedures are performed at 4° C. unless specified otherwise. Livers are homogenized in a solution (1:3 w/v) containing 0.25 M sucrose, 62 mM potassium phosphate buffer (pH 7.0), 0.15 M KCl, 1.5 mM N-acetyleysteine, 5 mM MgCl2, and 0.1 mM EDTA using 4 strokes of a Potter-Elvehjem tissue homogenizer. The homogenate is centrifuged at 10,400×g for 20 min to eliminate mitochondria and cellular debris. The supernatant is filtered through a 3-layer cheesecloth and centrifuged at 105,000×g for 60 min. The microsomal pellet is gently resuspended in the same homogenization solution with a small glass/teflon homogenizer and stored at −70° C. The absence of mitochondrial contamination is enzymatically assessed. The protein concentration is measured using bovine serum albumin as the standard.
The tubes are vortexed vigorously and after 15 min incubation in a shaking water bath (37° C.), the reactions are stopped and fatty acids are analyzed.
Fatty acids are analyzed as follows: The reaction mixture is saponified with 10% KOH to obtain free fatty acids which are further methylated using BF3 in methanol. […] Fatty acid methyl esters are separated isocratically with acetonitrile/water (95:5 v:v) at a flow rate of 1 mL/min and are identified by comparison with authentic standards.
The compounds are analyzed with an HTS microsomal assay. The activities are defined in terms of % SCD enzyme activity remaining at the selected concentration (e.g., 10 μM) of the test compounds.

| Compound | Mouse Microsome 10% remaining @ 10 μM [%] |
| --- | --- |
| CCCCNC(=O)Nc1ccc(N2CCN(C(=O)c3ccccc3C(F)(F)F)CC2)nn1 [1-BUTYL-3-{6-[4-(2-TRIFLUOROMETHYLBENZOYL)PIPERAZIN-1-YL]PYRIDAZIN-3-YL}UREA] | 13 |
| O=C(NCc1ccccc1)Nc1ccc(N2CCN(C(=O)c3ccccc3C(F)(F)F)CC2)nn1 [1-BENZYL-3-{6-[4-(2-TRIFLUOROMETHYLBENZOYL)PIPERAZIN-1-YL]PYRIDAZIN-3-YL}UREA] | 8 |
| CC(C)CCNC(=O)c1ccc(N2CCN(C(=O)c3cnn(C)c3C(F)(F)F)CC2)nn1 [6-[4-(1-METHYL-5-TRIFLUOROMETHYL-1H-PYRAZOLE-4-CARBONYL)PIPERAZIN-1-YL]-PYRIDAZINE-3-CARBOXYLIC ACID (3-METHYLBUTYL)AMIDE] | 15 |
| CC(NC(=O)Nc1ccc(N2CCN(C(=O)c3ccccc3C(F)(F)F)CC2)nn1)c1ccc(F)cc1 (centres unmarked) [1-[1-(4-Fluorophenyl)ethyl]-3-{6-[4-(2-trifluoromethylbenzoyl)piperazin-1-yl]pyridazin-3-yl}urea] | 45 |
| CC(C)CCNC(=O)c1ccc(N2CCN(C(=O)CCC(F)(F)F)CC2)nn1 [6-[4-(4,4,4-TRIFLUOROBUTYRYL)PIPERAZIN-1-YL]PYRIDAZINE-3-CARBOXYLIC ACID (3-METHYLBUTYL)AMIDE] | 42 |
| CC(C)CCNC(=O)c1ccc(N2CCN(C(=O)CC(C)C(F)(F)F)CC2)nn1 (centres unmarked) [6-[4-(4,4,4-TRIFLUORO-3-METHYLBUTYRYL)PIPERAZIN-1-YL]PYRIDAZINE-3-CARBOXYLIC ACID (3-METHYLBUTYL)AMIDE] | 11 |
| CC(C)CCNC(=O)c1ccc(N2CCN(C(=O)c3c(C(F)(F)F)nnn3Cc3ccccc3)CC2)nn1 [6-[4-(3-BENZYL-5-TRIFLUOROMETHYL-3H-[1,2,3]TRIAZOLE-4-CARBONYL)PIPERAZIN-1-YL]PYRIDAZINE-3-CARBOXYLIC ACID (3-METHYLBUTYL)AMIDE] | 61 |
| CC(C)(C)OC(=O)N1CCN(c2ccc(C(=O)NCCC3CC3)nn2)CC1 [4-[6-(2-CYCLOPROPYLETHYLCARAMOYL)PYRIDAZIN-3-YL]PIPERAZINE-1-CARBOXYLIC ACID T-BUTYL ESTER] | 37 |
| COC(=O)C(CC(C)C)NC(=O)c1ccc(N2CCN(C(=O)c3ccccc3C(F)(F)F)CC2)nn1 (centres unmarked) [4-METHYL-2-({6-[4-(2-TRIFLUOROMETHYLBENZOYL)PIPERAZIN-1-YL]-PYRIDAZINE-3-CARBONYL}AMINO)PENTANOIC ACID METHYL ESTER] | 69 |
| O=C(NCCc1ccccc1)Nc1ccc(N2CCN(C(=O)c3ccccc3C(F)(F)F)CC2)nn1 | 15 |
| CC(C)CCNC(=O)c1ccc(N2CCN(C(=O)N3CCN(C)CC3)CC2)nn1 [6-[4-(4-METHYLPIPERAZINE-1-CARBONYL)PIPERAZIN-1-YL]PYRIDAZIN E-3-CARBOXYLIC ACID (3-METHYLBUTYL)AMIDE] | 29 |
| CC(C)CCNC(=O)c1ccc(N2CCN(C(=O)OC(C)(C)C)CC2)nn1 [4-[6-(3-METHYLBUTYLCARAMOYL)PYRIDAZIN-3-YL]PIPERAZINE-1-CARBOXYLIC ACID T-BUTYL ESTER] | 11 |
| O=C(NCCC1CC1)c1ccc(N2CCN(C(=O)Cc3ccccc3C(F)(F)F)CC2)nn1 [6-{4-[2-(2-TRIFLUOROMETHYLPHENYL)ACETYL]PIPERAZIN-1-YL}PYRIDAZINE-3-CARBOXYLIC ACID (2-CYCLOPROPYLETHYL)AMIDE] | 10 |
| CC(C)CCNC(=O)c1ccc(N2CCN(C(=O)C3(C(F)(F)F)CC3)CC2)nn1 [6-[4-(1-TRIFLUOROMETHYLCYCLOPROPANECARBONYL)PIPERAZIN-1-YL]-PYRIDAZINE-3-CARBOXYLIC ACID (3-METHYLBUTYL)AMIDE] | 26 |
| O=C(NCCC1CC1)c1ccc(N2CCN(C(=O)c3cc(Cl)ccc3C(F)(F)F)CC2)nn1 [6-[4-(5-CHLORO-2-TRIFLUOROMETHYLBENZOYL)PIPERAZIN-1-YL]PYRIDAZINE-3-CARBOXYLIC ACID (2-CYCLOPROPYLETHYL)AMIDE] | 12 |
| O=C(NCCCc1ccc(F)cc1)Nc1ccc(N2CCN(C(=O)c3ccccc3C(F)(F)F)CC2)nn1 [1-[3-(4-Fluorophenyl)propyl]-3-{6-[4-(2-trifluoromethylbenzoyl)piperazin-1-yl]pyridazin-3-yl}urea] | 14 |
| O=C(Nc1ccc(F)cc1)Nc1ccc(N2CCN(C(=O)c3ccccc3C(F)(F)F)CC2)nn1 [1-(4-FLUOROPHENYL)-3-{6-[4-(2-TRIFLUOROMETHYLBENZOYL)PIPERAZIN-1-YL]-PYRIDAZIN-3-YL}UREA] | 82 |
| O=C(NCCC1CC1)c1ccc(N2CCN(Cc3cc(F)ccc3C(F)(F)F)CC2)nn1 [6-[4-(5-FLUORO-2-TRIFLUOROMETHYLBENZYL)PIPERAZIN-1-YL]PYRIDAZINE-3-CARBOXYLIC ACID (2-CYCLOPROPYLETHYL)AMIDE] | 3 |
| O=C(NCCC1CC1)c1ccc(N2CCN(C(=O)C3(O)CC3)CC2)nn1 [6-[4-(1-HYDROXYCYCLOPROPANECARBONYL)PIPERAZIN-1-YL]PYRIDAZINE-3-CARBOXYLIC ACID (2-CYCLOPROPYLETHYL)AMIDE] | 73 |
| O=C(NCCC1CC1)c1ccc(N2CCN(C(=O)c3cc(C(F)(F)F)ccc3C(F)(F)F)CC2)nn1 [6-[4-(2,5-BIS-TRIFLUOROMETHYLBENZOYL)PIPERAZIN-1-YL]PYRIDAZINE-3-CARBOXYLIC ACID (2-CYCLOPROPYLETHYL)AMIDE] | 6 |

Now from value to molecule:

| Mouse Microsome 10% remaining @ 10 μM [%] | Compound |
| --- | --- |
| 73 | O=C(Nc1ccc(N2CCN(C(=O)c3ccccc3C(F)(F)F)CC2)nn1)Nc1ccccc1F [1-(2-FLUOROPHENYL)-3-{6-[4-(2-TRIFLUOROMETHYLBENZOYL)PIPERAZIN-1-YL]-PYRIDAZIN-3-YL}UREA] |
| 18 | CCOC(=O)CCNC(=O)Nc1ccc(N2CCN(C(=O)c3ccccc3C(F)(F)F)CC2)nn1 [3-(3-{6-[4-(2-TRIFLUOROMETHYLBENZOYL)PIPERAZIN-1-YL]-PYRIDAZIN-3-YL}-UREIDO)PROPIONIC ACID ETHYL ESTER] |
| 6 | O=C(NCc1ccc(F)cc1)Nc1ccc(N2CCN(C(=O)c3ccccc3C(F)(F)F)CC2)nn1 [1-(4-FLUOROBENZYL)-3-{6-[4-(2-TRIFLUOROMETHYLBENZOYL)PIPERAZIN-1-YL]-PYRIDAZIN-3-YL}UREA] |
| 23 | CC(C)CCNC(=O)c1ccc(N2CCN(C(=O)c3ccccc3N)CC2)nn1 [6-[4-(2-AMINOBENZOYL)PIPERAZIN-1-YL]PYRIDAZINE-3-CARBOXYLIC ACID (3-METHYLBUTYL)AMIDE] |
| 49 | O=C(NCC1CC1)c1ccc(N2CCN(C(=O)c3ccccc3C(F)(F)F)CC2)nn1 [6-[4-(2-TRIFLUOROMETHYLBENZOYL)PIPERAZIN-1-YL]PYRIDAZINE-3-CARBOXYLIC ACID CYCLOPROPYLMETHYLAMIDE] |
| 7 | O=C(NCCC1CC1)c1ccc(N2CCN(C(=O)c3ccoc3C(F)(F)F)CC2)nn1 [6-[4-(2-TRIFLUOROMETHYLFURAN-3-CARBONYL)PIPERAZIN-1-YL]PYRIDAZINE-3-CARBOXYLIC ACID (2-CYCLOPROPYLETHYL)AMIDE] |
| 12 | O=C(NCCC1CC1)c1ccc(N2CCN(Cc3ccccc3C(F)(F)F)CC2)nn1 [6-[4-(2-TRIFLUOROMETHYLBENZYL)PIPERAZIN-1-YL]PYRIDAZINE-3-CARBOXYLIC ACID (2-CYCLOPROPYLETHYL)AMIDE] |
| 8 | O=C(NCCCC1CC1)c1ccc(N2CCN(Cc3cc(F)ccc3C(F)(F)F)CC2)nn1 [6-[4-(5-FLUORO-2-TRIFLUOROMETHYLBENZYL)PIPERAZIN-1-YL]PYRIDAZINE-3-CARBOXYLIC ACID (3-CYCLOPROPYLPROPYL)AMIDE] |
| 8 | CC(C(=O)N1CCN(c2ccc(C(=O)NCCC3CC3)nn2)CC1)(C(F)(F)F)C(F)(F)F [6-[4-(3,3,3-TRIFLUORO-2-METHYL-2-TRIFLUOROMETHYLPROPIONYL)PIPERAZIN-1-YL]PYRIDAZINE-3-CARBOXYLIC ACID (2-CYCLOPROPYLETHYL)AMIDE] |
| 9 | CC(=CC(=O)N1CCN(c2ccc(C(=O)NCCC(C)C)nn2)CC1)C(F)(F)F [6-[4-(4,4,4-TRIFLUORO-3-METHYLBUT-2-ENOYL)PIPERAZIN-1-YL]-PYRIDAZINE-3-CARBOXYLIC ACID (3-METHYLBUTYL)AMIDE] |
| 12 | O=C(NCCC1CC1)c1ccc(N2CCN(Cc3ccc(F)cc3C(F)(F)F)CC2)nn1 [6-[4-(4-FLUORO-2-TRIFLUOROMETHYLBENZYL)-PIPERAZIN-1-YL]PYRIDAZINE-3-CARBOXYLIC ACID (2-CYCLOPROPYLETHYL)AMIDE] |
| 8 | CC(C)CCNC(=O)c1ccc(N2CCN(C(=O)c3ccccc3[N+](=O)[O-])CC2)nn1 [6-[4-(2-NITROBENZOYL)PIPERAZIN-1-YL]PYRIDAZINE-3-CARBOXYLIC ACID (3-METHYLBUTYL)AMIDE] |
| 94 | O=C(NCCC1CC1)c1ccc(N2CCN(C(=O)c3ccccn3)CC2)nn1 [6-[4-(PYRIDINE-2-CARBONYL)PIPERAZIN-1-YL]PYRIDAZINE-3-CARBOXYLIC ACID (2-CYCLOPROPYLETHYL)AMIDE] |
| 19 | CC(C)CCNC(=O)c1ccc(N2CCN(C(=O)C(C)CC(F)(F)F)CC2)nn1 (centres unmarked) [6-[4-(4,4,4-TRIFLUORO-2-METHYLBUTYRYL)PIPERAZIN-1-YL]PYRIDAZINE-3-CARBOXYLIC ACID (3-METHYLBUTYL)AMIDE] |
| 61 | CC(C)CCNC(=O)c1ccc(N2CCN(C(=O)c3nnn(Cc4ccccc4)c3C(F)(F)F)CC2)nn1 [6-[4-(1-BENZYL-5-TRIFLUOROMETHYL-1H-[1,2,3]TRIAZOLE-4-CARBONYL)-PIPERAZIN-1-YL]PYRIDAZINE-3-CARBOXYLIC ACID (3-METHYLBUTYL)AMIDE] |
